Experimental data as given in patent publication EP0197661A2, “Low-calorie sugar composition” (Takeda Chemical Industries, Ltd., priority 1985, dated 1986).
Marks after values point to notes of the source that are not given here.

Test system: Male rats (Jcl:SD strain)
Test: Oral sucrose loading in fasted rats with varying dosage of AO-128; blood glucose level
Type: in vivo
Conditions: rats fasted 20 hours, mean ± standard deviation
Protocol: Male rats (Jcl:SD strain, purchased from Clea Japan) aged 6 weeks, which had been raised on commercially available pelleted rat chow (CE-2®, Clea Japan), were fasted for 20 hours and, then, administered orally with 2.5 g/kg of sucrose containing a varying dosage of AO-128. The blood glucose level was determined 30, 60 and 120 minutes after administration.

[1] = AO-128 0.1mg/Kg with 2.5 g/kg sucrose orally
[2] = AO-128 0.2mg/Kg with 2.5 g/kg sucrose orally
[3] = AO-128 0.4mg/Kg with 2.5 g/kg sucrose orally

OCC(CO)N[C@H]1C[C@](O)(CO)[C@@H](O)[C@H](O)[C@H]1O [AO-128, N-(l,3-dihydroxy-2-propyl)valiolamine]
Blood glucose level 0 min. [1]: 69 ± 4 mg/dL | Blood glucose level 60 min. [1]: 101±2^a mg/dℓ | Blood glucose level 120 min. [1]: 88±3^a mg/dℓ | Delta glucose area [1]: 52±5^b mg/dℓ·hr | Blood glucose level 30 min. [2]: 102±6^b mg/dℓ | Delta glucose area [2]: 38±7^a mg/dℓ·hr | Blood glucose level 0 min. [3]: 67 ± 4 mg/dL | Blood glucose level 30 min. [3]: 79±2^a mg/dℓ | Blood glucose level 60 min. [3]: 77±5^a mg/dℓ | Blood glucose level 120 min. [3]: 71±5^a mg/dℓ
